The record followed here is patent publication US9204653B2, “5-fluoro pyrimidine derivatives” (DOW AGROSCIENCES LLC, priority 2008, dated 2015).

Where two headings read alike, the source gives them in different places.

The assay deals with Mycosphaerella graminicola; Anamorph: Septoria tritici; Bayer Code SEPTTR. In words: Leaf blotch of wheat, foliar fungicide treatment, one day protectant (1DP) or three day curative (3DC). The conditions noted are these: Zymoseptoria tritici, rating of percent disease control. It counts as in vivo, Septoria tritici on wheat plants (variety Yuma).
Where [1] appears, read: 24 h, one day protectant (1DP), read-out: SETTTR 1DP 25 ppm.
Setting [2] is: 24 h, one day protectant (1DP), read-out: SEPTTR 1DP 100 ppm.
[3] abbreviates: 72 h, three day curative (3DC), read-out: SEPTTR 3DC 25 ppm.
The mark [4] stands for this setting: 72 h, three day curative (3DC), read-out: SEPTTR 3DC 100 ppm.

Turning to `Nc1nc(OS(=O)(=O)c2cccs2)ncc1F` [Compound 348], the pest or weed control at 25 ppm is, setting by setting: under setting [1], 76 to 100%; under setting [3], 76 to 100%. For the same molecule, the pest or weed control at 100 ppm by setting is: under setting [2], 76 to 100%; under setting [4], 76 to 100%.

As for `COc1cc(Cl)c(COc2ncc(F)c(N)n2)cc1OC` [Compound 350], the pest or weed control at 25 ppm under setting [1] was 76 to 100% and the pest or weed control at 25 ppm under setting [3] is 76 to 100%. The pest or weed control at 100 ppm runs as follows: under setting [2], 76 to 100%; under setting [4], 76 to 100%.

Regarding `COc1ccc(OC)c(COc2ncc(F)c(N)n2)c1` [Compound 351], the pest or weed control at 25 ppm reads like this: under setting [1], 76 to 100%; under setting [3], 76 to 100%. Besides, the pest or weed control at 100 ppm runs as follows: under setting [2], 76 to 100%; under setting [4], 76 to 100%.

On to `COc1ccccc1COc1ncc(F)c(NCOCc2ccccc2)n1` [Compound 354], for which the pest or weed control at 25 ppm was in the range of 51 to 75% under setting [1] and 26 to 50% under setting [3]. Besides, the pest or weed control at 100 ppm under setting [2] lay within 76 to 100% and the pest or weed control at 100 ppm under setting [4] lay in the range of 76 to 100%.

As for `Nc1nc(OC(c2ccc(F)cc2)c2ccc(F)cc2)ncc1F` [Compound 355], the pest or weed control at 25 ppm was 76 to 100% under setting [1] and 76 to 100% under setting [3]. The pest or weed control at 100 ppm is, setting by setting: under setting [2], 76 to 100%; under setting [4], 76 to 100%.

`Fc1cnc(OCc2ccccc2)nc1N/N=C/c1ccco1` [Compound 357]: the pest or weed control at 25 ppm is 26 to 50% under setting [1] and 0 to 25% under setting [3]. Further, the pest or weed control at 100 ppm is, setting by setting: under setting [2], 26 to 50%; under setting [4], 51 to 75%.

For the molecule `CC(C)=NNc1nc(OCc2ccc(F)cc2)ncc1F` [Compound 358], the pest or weed control at 25 ppm is 0 to 25% under setting [1] and 26 to 50% under setting [3]. In addition, the pest or weed control at 100 ppm under setting [2] fell in the range of 51 to 75% and the pest or weed control at 100 ppm under setting [4] was in the range of 76 to 100%.

`CN(C)/C=N/c1nc(OS(=O)(=O)c2ccc(Cl)cc2)ncc1F` [Compound 359]: the pest or weed control at 25 ppm lay in the range of 76 to 100% under setting [1] and 76 to 100% under setting [3]. Besides, the pest or weed control at 100 ppm under setting [2] was 76 to 100% and the pest or weed control at 100 ppm under setting [4] lay in the range of 26 to 50%.

`O=C(Nc1nc(OCc2cccc(F)c2)ncc1F)OCc1cccc(F)c1` [Compound 360]: the pest or weed control at 25 ppm runs as follows: under setting [1], 76 to 100%; under setting [3], 76 to 100%. Besides, the pest or weed control at 100 ppm runs as follows: under setting [2], 76 to 100%; under setting [4], 76 to 100%.

As for `CN(C)/C=N/c1nc(OC(=O)Oc2ccc(Cl)cc2)ncc1F` [Compound 361], the pest or weed control at 25 ppm lay in the range of 51 to 75% under setting [1] and 76 to 100% under setting [3]. Besides, the pest or weed control at 100 ppm is, setting by setting: under setting [2], 76 to 100%; under setting [4], 76 to 100%.

For `COCNc1nc(OCc2ccc(F)cc2)ncc1F` [Compound 362], the pest or weed control at 25 ppm under setting [1] is 51 to 75% and the pest or weed control at 25 ppm under setting [3] is 51 to 75%. Further, the pest or weed control at 100 ppm runs as follows: under setting [2], 76 to 100%; under setting [4], 76 to 100%.

Consider `O=C(Nc1nc(OCc2ccc(F)cc2)ncc1F)c1ccccc1` [Compound 364], for which the pest or weed control at 25 ppm was in the range of 76 to 100% under setting [1] and 76 to 100% under setting [3]. Also, the pest or weed control at 100 ppm by setting is: under setting [2], 76 to 100%; under setting [4], 76 to 100%.

On to `Cc1cc(COc2ncc(F)c(N)n2)ccc1F` [Compound 365], for which the pest or weed control at 25 ppm is 76 to 100% under setting [1] and 76 to 100% under setting [3]. The pest or weed control at 100 ppm runs as follows: under setting [2], 76 to 100%; under setting [4], 76 to 100%.

As to `Cn1ccc(COc2ncc(F)c(NSc3ccccc3[N+](=O)[O-])n2)n1` [Compound 366], the pest or weed control at 25 ppm fell in the range of 76 to 100% under setting [1] and 51 to 75% under setting [3]. For the same molecule, the pest or weed control at 100 ppm reads like this: under setting [2], 76 to 100%; under setting [4], 76 to 100%.

Consider `COc1cccc(COc2ncc(F)c(N(N)c3ccccc3)n2)c1` [Compound 367], for which the pest or weed control at 25 ppm reads like this: under setting [1], 0 to 25%; under setting [3], 0 to 25%. Moreover, the pest or weed control at 100 ppm was 0 to 25% under setting [2] and 0 to 25% under setting [4].

Turning to `Nc1nc(OCc2cccc(OC(F)F)c2)ncc1F` [Compound 368], the pest or weed control at 25 ppm by setting is: under setting [1], 76 to 100%; under setting [3], 76 to 100%. Further, the pest or weed control at 100 ppm runs as follows: under setting [2], 76 to 100%; under setting [4], 76 to 100%.

For the molecule `Fc1cnc(OCc2cccs2)nc1/N=C/N1CCOCC1` [Compound 369], the pest or weed control at 25 ppm is, setting by setting: under setting [1], 76 to 100%; under setting [3], 76 to 100%. Also, the pest or weed control at 100 ppm by setting is: under setting [2], 76 to 100%; under setting [4], 76 to 100%.

For `O=C(NCc1ccccc1F)Nc1nc(OCc2ccccc2)ncc1F` [Compound 371], the pest or weed control at 25 ppm reads like this: under setting [1], 0 to 25%; under setting [3], 0 to 25%. The pest or weed control at 100 ppm under setting [2] lay in the range of 0 to 25% and the pest or weed control at 100 ppm under setting [4] was in the range of 0 to 25%.

Consider `CN(CCOc1ncc(F)c(N)n1)c1ccccc1` [Compound 372], for which the pest or weed control at 25 ppm under setting [1] lay in the range of 26 to 50%. Besides, under setting [2], the pest or weed control at 100 ppm was in the range of 76 to 100%.

For `CCOCNc1nc(OCc2ccn(C)n2)ncc1F` [Compound 374], the pest or weed control at 25 ppm under setting [1] fell in the range of 51 to 75% and the pest or weed control at 25 ppm under setting [3] was in the range of 76 to 100%. The pest or weed control at 100 ppm under setting [2] was 76 to 100% and the pest or weed control at 100 ppm under setting [4] lay in the range of 76 to 100%.

With `CCOCCOc1cccc(COc2ncc(F)c(NC)n2)c1` [Compound 375], the pest or weed control at 25 ppm under setting [1] fell in the range of 0 to 25% and the pest or weed control at 25 ppm under setting [3] lay in the range of 26 to 50%. In addition, the pest or weed control at 100 ppm is, setting by setting: under setting [2], 0 to 25%; under setting [4], 76 to 100%.

`O=C(Nc1cccs1)Nc1nc(OCc2ccc(F)cc2)ncc1F` [Compound 376]: the pest or weed control at 25 ppm under setting [1] lay within 0 to 25% and the pest or weed control at 25 ppm under setting [3] fell in the range of 0 to 25%. The pest or weed control at 100 ppm by setting is: under setting [2], 0 to 25%; under setting [4], 26 to 50%.

Take `Cc1ccc(COc2ncc(F)c(/N=C3\CCCCN3C)n2)cc1` [Compound 377]: the pest or weed control at 25 ppm lay within 76 to 100% under setting [1] and 51 to 75% under setting [3]. For the same molecule, the pest or weed control at 100 ppm runs as follows: under setting [2], 76 to 100%; under setting [4], 76 to 100%.

For `Nc1nc(Oc2ccc(Cl)c3ccccc23)ncc1F` [Compound 378], the pest or weed control at 25 ppm is 51 to 75% under setting [1] and 76 to 100% under setting [3]. The pest or weed control at 100 ppm reads like this: under setting [2], 76 to 100%; under setting [4], 76 to 100%.

For `CCOCNc1nc(OC(C)c2ccc(F)cc2)ncc1F` (centres unmarked) [Compound 379], the pest or weed control at 25 ppm under setting [1] was 76 to 100% and the pest or weed control at 25 ppm under setting [3] was 51 to 75%. For the same molecule, the pest or weed control at 100 ppm fell in the range of 76 to 100% under setting [2] and 76 to 100% under setting [4].

With `NN(Cc1ccccc1)c1nc(OCc2ccc(F)cc2)ncc1F` [Compound 380], the pest or weed control at 25 ppm by setting is: under setting [1], 76 to 100%; under setting [3], 0 to 25%. Further, the pest or weed control at 100 ppm runs as follows: under setting [2], 76 to 100%; under setting [4], 76 to 100%.

In the case of `Nc1nc(OCc2cccc3ccsc23)ncc1F` [Compound 381], the pest or weed control at 25 ppm runs as follows: under setting [1], 76 to 100%; under setting [3], 76 to 100%. In addition, the pest or weed control at 100 ppm by setting is: under setting [2], 76 to 100%; under setting [4], 76 to 100%.

Consider `CC(Oc1ncc(F)c(N)n1)c1c(Cl)ccc(Cl)c1Cl` (centres unmarked) [Compound 382], for which the pest or weed control at 25 ppm fell in the range of 76 to 100% under setting [1] and 0 to 25% under setting [3]. Moreover, the pest or weed control at 100 ppm was 76 to 100% under setting [2] and 76 to 100% under setting [4].

Take `Nc1nc(OCc2ccccc2Cn2cncn2)ncc1F` [Compound 383]: the pest or weed control at 25 ppm lay within 0 to 25% under setting [1] and 26 to 50% under setting [3]. Also, the pest or weed control at 100 ppm under setting [2] lay within 0 to 25% and the pest or weed control at 100 ppm under setting [4] lay in the range of 0 to 25%.

As to `CC(C)(C)Oc1cccc(COc2ncc(F)c(N)n2)c1` [Compound 385], the pest or weed control at 25 ppm is, setting by setting: under setting [1], 76 to 100%; under setting [3], 76 to 100%. The pest or weed control at 100 ppm under setting [2] was 76 to 100% and the pest or weed control at 100 ppm under setting [4] was 76 to 100%.

With `COc1ccc(COc2ncc(F)c(N)n2)cc1C` [Compound 386], the pest or weed control at 25 ppm lay within 76 to 100% under setting [1] and 76 to 100% under setting [3]. The pest or weed control at 100 ppm is 76 to 100% under setting [2] and 76 to 100% under setting [4].

On to `CC(C)c1ccc(C(C)Oc2ncc(F)c(N)n2)cc1` (centres unmarked) [Compound 387], for which the pest or weed control at 25 ppm was 76 to 100% under setting [1] and 76 to 100% under setting [3]. For the same molecule, the pest or weed control at 100 ppm under setting [2] lay in the range of 76 to 100% and the pest or weed control at 100 ppm under setting [4] lay in the range of 76 to 100%.

As to `COCCOC(=O)Oc1ncc(F)c(/N=C/N(C)C)n1` [Compound 389], the pest or weed control at 25 ppm by setting is: under setting [1], 76 to 100%; under setting [3], 76 to 100%. Further, the pest or weed control at 100 ppm is, setting by setting: under setting [2], 76 to 100%; under setting [4], 76 to 100%.

In the case of `ONc1nc(OCc2ccccc2)ncc1F` [Compound 390], the pest or weed control at 25 ppm was in the range of 76 to 100% under setting [1] and 76 to 100% under setting [3]. Besides, the pest or weed control at 100 ppm is, setting by setting: under setting [2], 76 to 100%; under setting [4], 76 to 100%.

`Nc1nc(OCc2ccccc2I)ncc1F` [Compound 391]: the pest or weed control at 25 ppm by setting is: under setting [1], 51 to 75%; under setting [3], 26 to 50%. The pest or weed control at 100 ppm under setting [2] is 76 to 100% and the pest or weed control at 100 ppm under setting [4] is 76 to 100%.

For `Nc1nc(OCc2ccoc2)ncc1F` [Compound 392], the pest or weed control at 25 ppm runs as follows: under setting [1], 76 to 100%; under setting [3], 76 to 100%. In addition, the pest or weed control at 100 ppm reads like this: under setting [2], 76 to 100%; under setting [4], 76 to 100%.

On to `CC(Oc1ncc(F)c(N)n1)c1ccc([N+](=O)[O-])cc1` (centres unmarked) [Compound 393], for which the pest or weed control at 25 ppm fell in the range of 26 to 50% under setting [1] and 26 to 50% under setting [3]. In addition, the pest or weed control at 100 ppm under setting [2] lay in the range of 76 to 100% and the pest or weed control at 100 ppm under setting [4] was 76 to 100%.
